Experimental data from patent US9074014B2 (Ipsen Pharma S.A.S., priority 2008, dated 2015).
Where a SMILES comes first, the peptide text is derived from it. [ ]: non-standard residue; d: D form. Ac6c = NC1(C(=O)O)CCCCC1; Ac5c = NC1(C(=O)O)CCCC1; Aib = CC(C)(N)C(=O)O

Tests used:
[1] = Human plasma half-life assay; format: in vitro ADME; details: human plasma, 37° C., LC-MS; read-out: Human Plasma T½ (converted)
[2] = Rat plasma half-life assay; format: in vitro ADME; details: rat plasma, 37° C., LC-MS; read-out: Rat Plasma T½ (converted)

SMILES | half-life at 0.1 mg/ml [1] | half-life at 0.1 mg/ml [2]
CC[C@H](C)[C@H](NC(=O)[C@H](CCCCN)NC(=O)[C@H](CC(=O)O)NC(=O)C1(NC(=O)[C@H](C)NC(=O)[C@@H](NC(=O)C2(NC(=O)[C@H](Cc3ccc(O)cc3)NC(=O)[C@H](CC(=O)O)NC(=O)[C@H](CO)NC(=O)[C@@H](NC(=O)[C@H](Cc3ccccc3)NC(=O)[C@@H](NC(=O)CNC(=O)[C@@H]3CCCCN3C(=O)[C@H](C)NC(=O)[C@@H](N)Cc3ccc(O)cc3)[C@@H](C)O)[C@@H](C)CC)CCCC2)[C@@H](C)CC)CCCCC1)C(=O)N[C@@H](Cc1c[nH]cn1)C(=O)N[C@@H](CCC(N)=O)C(=O)N[C@@H](CCC(N)=O)C(=O)N[C@@H](CC(=O)O)C(=O)N[C@@H](Cc1ccccc1)C(=O)N[C@H](C(=O)N[C@@H](CC(N)=O)C(=O)N[C@@H](Cc1c[nH]c2ccccc12)C(=O)N[C@@H](CC(C)C)C(=O)N[C@@H](CC(C)C)C(=O)N[C@@H](C)C(=O)N[C@@H](CCC(N)=O)C(=O)N[C@@H](CCCCN)C(=O)NCC(=O)N[C@@H](CCCCN)C(=O)N[C@@H](CCCCN)C(=O)N[C@@H](CC(N)=O)C(=O)N[C@@H](CC(=O)O)C(=O)N[C@@H](Cc1c[nH]c2ccccc12)C(=O)N[C@@H](CCCCN)C(=O)N[C@@H](Cc1c[nH]cn1)C(=O)N[C@@H](CC(N)=O)C(=O)N[C@H](C(=O)N[C@H](C(=O)N[C@@H](CCC(N)=O)C(=O)O)[C@@H](C)O)[C@@H](C)CC)C(C)C [Example 83, (hPro^3, A5c^11, A6c^14)hGIP(1-42)-OH] | 1940 min | 66 min
CC[C@H](C)[C@H](NC(=O)[C@H](CCCCN)NC(=O)[C@H](CC(=O)O)NC(=O)C1(NC(=O)[C@H](C)NC(=O)[C@@H](NC(=O)C2(NC(=O)[C@H](Cc3ccc(O)cc3)NC(=O)[C@H](CC(=O)O)NC(=O)[C@H](CO)NC(=O)[C@@H](NC(=O)[C@H](Cc3ccccc3)NC(=O)[C@@H](NC(=O)CNC(=O)[C@@H]3CC(O)CN3C(=O)[C@H](C)NC(=O)[C@@H](N)Cc3ccc(O)cc3)[C@@H](C)O)[C@@H](C)CC)CCCC2)[C@@H](C)CC)CCCCC1)C(=O)N[C@@H](Cc1c[nH]cn1)C(=O)N[C@@H](CCC(N)=O)C(=O)N[C@@H](CCC(N)=O)C(=O)N[C@@H](CC(=O)O)C(=O)N[C@@H](Cc1ccccc1)C(=O)N[C@H](C(=O)N[C@@H](CC(N)=O)C(=O)N[C@@H](Cc1c[nH]c2ccccc12)C(=O)N[C@@H](CC(C)C)C(=O)N[C@@H](CC(C)C)C(=O)N[C@@H](C)C(=O)N[C@@H](CCC(N)=O)C(=O)N[C@@H](CCCCN)C(=O)NCC(=O)N[C@@H](CCCCN)C(=O)N[C@@H](CCCCN)C(=O)N[C@@H](CC(N)=O)C(=O)N[C@@H](CC(=O)O)C(=O)N[C@@H](Cc1c[nH]c2ccccc12)C(=O)N[C@@H](CCCCN)C(=O)N[C@@H](Cc1c[nH]cn1)C(=O)N[C@@H](CC(N)=O)C(=O)N[C@H](C(=O)N[C@H](C(=O)N[C@@H](CCC(N)=O)C(=O)O)[C@@H](C)O)[C@@H](C)CC)C(C)C (stereo partly drawn) [Example 88, (4Hyp^3, A5c^11, A6c^14)hGIP(1-42)-OH] | > 2880 min | 264 min
CC[C@H](C)[C@H](NC(=O)[C@H](CO)NC(=O)[C@H](Cc1ccc(O)cc1)NC(=O)[C@H](CC(=O)O)NC(=O)[C@H](CO)NC(=O)C1(NC(=O)[C@H](Cc2ccccc2)NC(=O)[C@@H](NC(=O)CNC(=O)[C@@H]2CCCN2C(=O)C(C)(C)NC(=O)[C@@H](N)Cc2ccc(O)cc2)[C@@H](C)O)CCCCC1)C(=O)N[C@@H](C)C(=O)N[C@@H](CCSC)C(=O)N[C@@H](CC(=O)O)C(=O)N[C@@H](CCCCN)C(=O)N[C@H](C(=O)N[C@@H](Cc1c[nH]cn1)C(=O)N[C@@H](CCC(N)=O)C(=O)N[C@@H](CCC(N)=O)C(=O)N[C@@H](CC(=O)O)C(=O)N[C@@H](Cc1ccccc1)C(=O)N[C@H](C(=O)N[C@@H](CC(N)=O)C(=O)N[C@@H](Cc1c[nH]c2ccccc12)C(=O)N[C@@H](CC(C)C)C(=O)N[C@@H](CC(C)C)C(=O)N[C@@H](C)C(=O)N[C@@H](CCC(N)=O)C(=O)N[C@@H](CCCCN)C(N)=O)C(C)C)[C@@H](C)CC [Example 109, (Aib^2, Pro^3, A6c^7)hGIP(1-30)-NH2] | 1630 min | 2870 min
CC[C@H](C)[C@H](NC(=O)[C@H](CCCCN)NC(=O)[C@H](CC(=O)O)NC(=O)[C@H](CCSC)NC(=O)[C@H](C)NC(=O)[C@@H](NC(=O)C1(NC(=O)[C@H](Cc2ccc(O)cc2)NC(=O)[C@H](CC(=O)O)NC(=O)[C@H](CO)NC(=O)[C@@H](NC(=O)[C@H](Cc2ccccc2)NC(=O)[C@@H](NC(=O)CNC(=O)[C@@H]2CCCN2C(=O)C(C)(C)NC(=O)[C@@H](N)Cc2ccc(O)cc2)[C@@H](C)O)[C@@H](C)CC)CCCC1)[C@@H](C)CC)C(=O)N[C@@H](Cc1c[nH]cn1)C(=O)N[C@@H](CCC(N)=O)C(=O)N[C@@H](CCC(N)=O)C(=O)N[C@@H](CC(=O)O)C(=O)N[C@@H](Cc1ccccc1)C(=O)N[C@H](C(=O)N[C@@H](CC(N)=O)C(=O)N[C@@H](Cc1c[nH]c2ccccc12)C(=O)N[C@@H](CC(C)C)C(=O)N[C@@H](CC(C)C)C(=O)N[C@@H](C)C(=O)N[C@@H](CCC(N)=O)C(=O)N[C@@H](CCCCN)C(N)=O)C(C)C [Example 110, (Aib^2, Pro^3, A5c^11)hGIP(1-30)-NH2] (H-Y[Aib]PGTFISDY[Ac5c]IAMDKIHQQDFVNWLLAQK-NH2; N-terminus assumed) | 822 min | 1550 min
CCCC[C@H](NC(=O)[C@H](C)NC(=O)[C@@H](NC(=O)C1(NC(=O)[C@H](Cc2ccc(O)cc2)NC(=O)[C@H](CC(=O)O)NC(=O)[C@H](CO)NC(=O)[C@@H](NC(=O)[C@H](Cc2ccccc2)NC(=O)[C@@H](NC(=O)CNC(=O)[C@@H]2CCCN2C(=O)C(C)(C)NC(=O)[C@@H](N)Cc2ccc(O)cc2)[C@@H](C)O)[C@@H](C)CC)CCCC1)[C@@H](C)CC)C(=O)N[C@@H](CC(=O)O)C(=O)N[C@@H](CCCCN)C(=O)N[C@H](C(=O)N[C@@H](Cc1c[nH]cn1)C(=O)N[C@@H](CCC(N)=O)C(=O)N[C@@H](CCC(N)=O)C(=O)N[C@@H](CC(=O)O)C(=O)N[C@@H](Cc1ccccc1)C(=O)N[C@H](C(=O)N[C@@H](CC(N)=O)C(=O)N[C@@H](Cc1c[nH]c2ccccc12)C(=O)N[C@@H](CC(C)C)C(=O)N[C@@H](CC(C)C)C(=O)N[C@@H](C)C(=O)N[C@@H](CCC(N)=O)C(=O)N[C@@H](CCCCN)C(N)=O)C(C)C)[C@@H](C)CC [Example 111, (Aib^2, Pro^3, A5c^11, Nle^14)hGIP(1-30)-NH2] | > 3240 min | > 3240 min
CC[C@H](C)[C@H](NC(=O)[C@H](CCCCN)NC(=O)[C@H](CC(=O)O)NC(=O)C1(NC(=O)[C@H](C)NC(=O)[C@@H](NC(=O)C2(NC(=O)[C@H](Cc3ccc(O)cc3)NC(=O)[C@H](CC(=O)O)NC(=O)[C@H](CO)NC(=O)[C@@H](NC(=O)[C@H](Cc3ccccc3)NC(=O)[C@@H](NC(=O)CNC(=O)[C@@H]3CCCN3C(=O)C(C)(C)NC(=O)[C@@H](N)Cc3ccc(O)cc3)[C@@H](C)O)[C@@H](C)CC)CCCC2)[C@@H](C)CC)CCCCC1)C(=O)N[C@@H](Cc1c[nH]cn1)C(=O)N[C@@H](CCC(N)=O)C(=O)N[C@@H](CCC(N)=O)C(=O)N[C@@H](CC(=O)O)C(=O)N[C@@H](Cc1ccccc1)C(=O)N[C@H](C(=O)N[C@@H](CC(N)=O)C(=O)N[C@@H](Cc1c[nH]c2ccccc12)C(=O)N[C@@H](CC(C)C)C(=O)N[C@@H](CC(C)C)C(=O)N[C@@H](C)C(=O)N[C@@H](CCC(N)=O)C(=O)N[C@@H](CCCCN)C(N)=O)C(C)C [Example 112, (Aib^2, Pro^3, A5c^11, A6c^14)hGIP(1-30)-NH2] (H-Y[Aib]PGTFISDY[Ac5c]IA[Ac6c]DKIHQQDFVNWLLAQK-NH2; N-terminus assumed) | 3580 min | > 4320 min
